Test: Essential fatty acid (EFA) parameters in plasma and RBC, gas chromatography of fatty acid methyl esters
Format: in vivo, human
Method: Blood samples (10 mL) were collected at Visit 1 (screening) and at Visits 4, 5 and 6. Analysis was performed by MSR Lipid Analysis, Scottish Crop Research Institute, Dundee, UK. The screening sample acted as baseline for the EFA measurements. Lipid was extracted from plasma, serum and RBC suspensions and converted into fatty acid methyl esters which were analyzed by gas chromatography to give fatty acid profiles as micrograms fatty acid per gram of sample (μgFA/g) and normalized area percent.
RBC and plasma EFA data were collected at baseline, Day 14, 28 and 42 and summarized by visit for each treatment group. Change from baseline and percent change from baseline were also summarized. ANCOVA comparison of ethyl-EPA dose groups and ethyl-EPA versus placebo was performed.
Notable changes for these parameters occurred in the ethyl-EPA treatment groups at Days 14, 28 and 42 compared to placebo.

SMILES: CC/C=C\C/C=C\C/C=C\C/C=C\C/C=C\CCCC(=O)OCC [Ethyl-EPA, all-cis eicosa-5,8,11,14,17-pentaenoic acid ethyl ester]
- AA Mean at Baseline (RBC, 1 g daily group, Baseline): 171.2 µg/g
- DGLA Mean at Baseline (RBC, 1 g daily group, Baseline): 23.0 µg/g
- DHA Mean at Baseline (RBC, 1 g daily group, Baseline): 66.5 µg/g
- DPAn-3 Mean at Baseline (RBC, 1 g daily group, Baseline): 34.1 µg/g
- EPA Mean at Baseline (RBC, 1 g daily group, Baseline): 19.8 µg/g
- EPA/AA Mean (SD) at Baseline (RBC, 1 g daily group, Baseline): 0.1 (0.07)
- AA Mean change from Baseline (RBC, 1 g daily, Day 14): -8.1 µg/g
- DGLA Mean change from Baseline (RBC, 1 g daily, Day 14): -2.7 µg/g
- DHA Mean change from Baseline (RBC, 1 g daily, Day 14): -4.6 µg/g
- DPAn-3 Mean change from Baseline (RBC, 1 g daily, Day 14): 0.9 µg/g
- EPA Mean change from Baseline (RBC, 1 g daily, Day 14): 12.3 µg/g
- EPA/AA Mean (SD) change from Baseline (RBC, 1 g daily, Day 14): 0.1 (0.04)
- AA Mean change from Baseline (RBC, 1 g daily, Day 28): -17.0 µg/g
- DGLA Mean change from Baseline (RBC, 1 g daily, Day 28): -3.8 µg/g
- DHA Mean change from Baseline (RBC, 1 g daily, Day 28): -6.4 µg/g
- DPAn-3 Mean change from Baseline (RBC, 1 g daily, Day 28): 3.3 µg/g
- EPA Mean change from Baseline (RBC, 1 g daily, Day 28): 14.5 µg/g
- EPA/AA Mean (SD) change from Baseline (RBC, 1 g daily, Day 28): 0.1 (0.05)
- AA Mean change from Baseline (RBC, 1 g daily, Day 42): -14.2 µg/g
- DGLA Mean change from Baseline (RBC, 1 g daily, Day 42): -3.5 µg/g
- DHA Mean change from Baseline (RBC, 1 g daily, Day 42): -7.0 µg/g
- DPAn-3 Mean change from Baseline (RBC, 1 g daily, Day 42): 6.5 µg/g
- EPA Mean change from Baseline (RBC, 1 g daily, Day 42): 17.6 µg/g
- EPA/AA Mean (SD) change from Baseline (RBC, 1 g daily, Day 42): 0.1 (0.06)
- AA LS Mean, 1 or 2 g versus 4 g (RBC, 1 g versus 4 g): 8.4 µg/g
- DGLA LS Mean, 1 or 2 g versus 4 g (RBC, 1 g versus 4 g): 1.5 µg/g
- DHA LS Mean, 1 or 2 g versus 4 g (RBC, 1 g versus 4 g): 1.0 µg/g
- DPAn-3 LS Mean, 1 or 2 g versus 4 g (RBC, 1 g versus 4 g): -6.2 µg/g
- EPA LS Mean, 1 or 2 g versus 4 g (RBC, 1 g versus 4 g): -24.4 µg/g
- EPA/AA LS Mean, 1 or 2 g versus 4 g (RBC, 1 g versus 4 g): −0.18
- AA Mean at Baseline (RBC, 2 g daily group, Baseline): 172.8 µg/g
- DGLA Mean at Baseline (RBC, 2 g daily group, Baseline): 23.0 µg/g
- DHA Mean at Baseline (RBC, 2 g daily group, Baseline): 64.8 µg/g
- DPAn-3 Mean at Baseline (RBC, 2 g daily group, Baseline): 33.2 µg/g
- EPA Mean at Baseline (RBC, 2 g daily group, Baseline): 18.9 µg/g
- EPA/AA Mean (SD) at Baseline (RBC, 2 g daily group, Baseline): 0.1 (0.06)
- AA Mean change from Baseline (RBC, 2 g daily, Day 14): -3.1 µg/g
- DGLA Mean change from Baseline (RBC, 2 g daily, Day 14): -2.6 µg/g
- DHA Mean change from Baseline (RBC, 2 g daily, Day 14): -2.0 µg/g
- DPAn-3 Mean change from Baseline (RBC, 2 g daily, Day 14): 5.6 µg/g
- EPA Mean change from Baseline (RBC, 2 g daily, Day 14): 26.9 µg/g
- EPA/AA Mean (SD) change from Baseline (RBC, 2 g daily, Day 14): 0.2 (0.04)
- AA Mean change from Baseline (RBC, 2 g daily, Day 28): -14.1 µg/g
- DGLA Mean change from Baseline (RBC, 2 g daily, Day 28): -4.5 µg/g
- DHA Mean change from Baseline (RBC, 2 g daily, Day 28): -6.2 µg/g
- DPAn-3 Mean change from Baseline (RBC, 2 g daily, Day 28): 9.4 µg/g
- EPA Mean change from Baseline (RBC, 2 g daily, Day 28): 32.9 µg/g
- EPA/AA Mean (SD) change from Baseline (RBC, 2 g daily, Day 28): 0.02 (0.06)
- AA Mean change from Baseline (RBC, 2 g daily, Day 42): -18.8 µg/g
- DGLA Mean change from Baseline (RBC, 2 g daily, Day 42): -5.3 µg/g
- DHA Mean change from Baseline (RBC, 2 g daily, Day 42): -6.3 µg/g
- DPAn-3 Mean change from Baseline (RBC, 2 g daily, Day 42): 13.2 µg/g
- EPA Mean change from Baseline (RBC, 2 g daily, Day 42): 38.3 µg/g
- EPA/AA Mean (SD) change from Baseline (RBC, 2 g daily, Day 42): 0.3 (0.06)
- AA LS Mean, 1 or 2 g versus 4 g (RBC, 2 g versus 4 g): 9.8 µg/g
- DGLA LS Mean, 1 or 2 g versus 4 g (RBC, 2 g versus 4 g): 1.5 µg/g
- DHA LS Mean, 1 or 2 g versus 4 g (RBC, 2 g versus 4 g): 1.0 µg/g
- DPAn-3 LS Mean, 1 or 2 g versus 4 g (RBC, 2 g versus 4 g): -2.5 µg/g
- EPA LS Mean, 1 or 2 g versus 4 g (RBC, 2 g versus 4 g): -11.8 µg/g
- EPA/AA LS Mean, 1 or 2 g versus 4 g (RBC, 2 g versus 4 g): −0.11
- AA Mean (SD) at Baseline (RBC, 4 g daily group, Baseline): 171.0 (25.17) μg/g
- DGLA Mean at Baseline (RBC, 4 g daily group, Baseline): 24.0 µg/g
- DHA Mean at Baseline (RBC, 4 g daily group, Baseline): 68.3 µg/g
- DPAn-3 Mean at Baseline (RBC, 4 g daily group, Baseline): 34.5 µg/g
- EPA Mean at Baseline (RBC, 4 g daily group, Baseline): 19.8 µg/g
- EPA/AA Mean (SD) at Baseline (RBC, 4 g daily group, Baseline): 0.1 (0.04)
- AA Mean (SD) change from Baseline (RBC, 4 g daily, Day 14): −15.7 (26.76) μg/g
- DGLA Mean change from Baseline (RBC, 4 g daily, Day 14): -5.3 µg/g
- DHA Mean change from Baseline (RBC, 4 g daily, Day 14): -6.9 µg/g
- DPAn-3 Mean change from Baseline (RBC, 4 g daily, Day 14): 5.4 µg/g
- EPA Mean change from Baseline (RBC, 4 g daily, Day 14): 39.5 µg/g
- EPA/AA Mean (SD) change from Baseline (RBC, 4 g daily, Day 14): 0.3 (0.07)
- AA Mean (SD) change from Baseline (RBC, 4 g daily, Day 28): −22.8 (29.56) μg/g
- DGLA Mean change from Baseline (RBC, 4 g daily, Day 28): -7.1 µg/g
- DHA Mean change from Baseline (RBC, 4 g daily, Day 28): -8.7 µg/g
- DPAn-3 Mean change from Baseline (RBC, 4 g daily, Day 28): 12.4 µg/g
- EPA Mean change from Baseline (RBC, 4 g daily, Day 28): 50.2 µg/g
- EPA/AA Mean (SD) change from Baseline (RBC, 4 g daily, Day 28): 0.4 (0.11)
- AA Mean (SD) change from Baseline (RBC, 4 g daily, Day 42): −34.4 (31.44) μg/g
- DGLA Mean change from Baseline (RBC, 4 g daily, Day 42): -8.0 µg/g
- DHA Mean change from Baseline (RBC, 4 g daily, Day 42): -13.8 µg/g
- DPAn-3 Mean change from Baseline (RBC, 4 g daily, Day 42): 16.2 µg/g
- EPA Mean change from Baseline (RBC, 4 g daily, Day 42): 52.5 µg/g
- EPA/AA Mean (SD) change from Baseline (RBC, 4 g daily, Day 42): 0.4 (0.14)
- Difference in EPA, AA (RBC only), DPAn-3, DGLA (1 g only for plasma) and EPA/AA ratio levels, 4 g compared to 1 g and 2 g (plasma and RBC, LS means, p≤0.05): significantly (LS means, p≤0.05) different

From patent US11439618B2, “Compositions and methods for lowering triglycerides” (Amarin Pharmaceuticals Ireland Limited, priority 2009, dated 2022)
